Assay: Resistivity of blends according to standard ASTM D1169
Assay type: physicochemical
Procedure: The resistivity ability of blends was evaluated according to the standard ASTM […].

Resistivity: 12.00 10^10 Ωcm
SMILES: CCCCCCCC/C=C\CCCCCCCC(=O)OCC(COC(=O)CCCCCCC/C=C\CCCCCCCC)(COC(=O)CCCCCCC/C=C\CCCCCCCC)COC(=O)CCCCCCC/C=C\CCCCCCCC [Pentaerythritol tetraoleate]
